{
  "source": "patent US20210322404A1",
  "about": "“FGFR REGULATION FOR THE TREATMENT OF VIRAL INFECTIONS” (ETH ZURICH, priority 2016, published 2021)",
  "key": {"HCV": {"system": "HCV", "conditions": "hepatic / hepatoma cells, Van et al.; cited from earlier work"}, "[1]": {"system": "interferon-stimulated genes (ISGs)", "assay": "ISG expression in primary mouse keratinocytes pre-incubated with inhibitors, then treated with FGF7 (qRT-PCR)", "assay_type": "cell-based", "conditions": "primary keratinocytes from wild-type mice; inhibitor 3 h (SB203580 5 μM, NSC23766 50 μM, AZD4547 1 μM), then FGF7 10 ng/ml 6 h"}, "HSV-1": {"system": "HSV-1", "assay": "HSV-1 infection of HaCaT cells, virus load", "assay_type": "cell-based, Herpes Simplex Virus type 1", "conditions": "HaCaT; for amount and size of Glyc-D-positive fused cells (immunofluorescence): HSV-1; for amount and size of Glyc-D-positive fused cells (immunofluorescence) / Glyc-B DNA levels (viral load, qPCR relative to human β-actin gene): NSC23766 20 μM, AZD4547 1 μM; for Glyc-B DNA levels (viral load, qPCR relative to human β-actin gene): HSV-1 MOI=0.5, +/- FGF7 10 ng/ml, BGJ398 3.5 μM", "description": "FIGS. 5A-C relate to HaCaT cells infected with HSV-1 (MOI=0.5) after overnight serum starvation, either alone or in combination with FGF7 (10 ng/ml) or IFNα (1000U/ml). 24 h after infection, virus load was determined by qPCR for the HSV-1 Glycoprotein B (Glyc-B) gene relative to the human β-actin gene (A) or visualized by immunofluorescence staining for HSV-1 Glycoprotein D (Glyc-D) (red) (B). The Glyc-B/β-actin gene ratio in HSV-1 infected cells was set to 1. Cell nuclei were stained with DAPI (blue). Magnification bar: 200 μm. (C) Transmission microscopy images of HaCaT cells taken 48 h after HSV-1 infection. […] Magnification bar: 80 μm. Representative data out of four experiments are shown.\nFIGS. 5 D & E relate to overnight-starved HaCaT cells infected with HSV-1 (MOI=0.5) alone or in combination with IFNα (1000 U/ml), IFNα and FGF7 (10 ng/ml) (D); or FGF7 at different concentrations (E).\nFIG. 5F pertains to serum-starved HaCaT cells that were infected with HSV-1 (MOI 0.5-1). After 4 h, infected cells were washed with PBS, followed by addition of fresh serum-free culture medium containing FGF7 (10 ng/ml).\nFIGS. 5G-K pertains to overnight-starved HaCaT cells infected with HSV-1 (MOI=0.5) alone or in combination with FGF7, which was added at the indicated time points. 12 h after infection, cells were analyzed for Glyc-B DNA (H) and, RSAD2 and IRF7 mRNA levels by qPCR/qRT-PCR (I) or for ISG protein levels by western blotting (K). Vinculin was used as loading control.\nFIGS. 7A-C relate to serum-starved HaCaT cells that were infected with HSV-1 in the presence or absence of FGF7 (10 ng/ml), NSC23766 (20 μM), the FGFR kinase inhibitors AZD4547 (1 μM) and BGJ398 (3.5 μM) (A) or IFNα (1000 U/ml) (B). […] Magnification bar: 500 μm. The Glyc-D positive area was quantified using digital pixel measurements (C, right). A representative out of two experiments is shown.\nFrozen sections from mouse back skin were fixed with cold methanol, and unspecific binding sites were blocked with PBS/2% bovine serum albumin (BSA) (Sigma)/1% fish skin gelatin (Sigma)/0.05% Triton X-100 (Carl Roth GmbH, Karlsruhe, Germany) for 2 h at room temperature. Samples were then incubated overnight at 4° C. with anti-IRF7 or anti-K14 antibodies diluted in the same buffer. After three washes with 1×PBS/0.1% Tween 20 (Carl Roth GmbH), slides were incubated at room temperature (RT) for 4 h with secondary antibodies (AF555-conjugated anti-rabbit IgG and AF488-conjugated anti-mouse IgG) and DAPI (4′,6-diamidino-2-phenylindole dihydrochloride) (Sigma) as counter-stain, washed again and mounted with Mowiol (Hoechst, Frankfurt, Germany). Stained sections were photographed with a Leica SP1-2 confocal microscope equipped with a 63×0.6-1.32 NA (Iris) PL Apo Oil objective. For data acquisition the Leica Confocal Software (Leica, Wetzlar, Germany) was used. For immunofluorescence staining of cultured cells, they were washed with PBS and either fixed for 5 min with cold methanol for staining with antibodies against ZO-1 and IRF7, or with 4% paraformaldehyde (PFA) (Sigma) for 20 min at RT for Glyc-D staining. PFA-fixed cells were then incubated for 10 min with 0.5% Triton X-100 in PBS. After 1 h blocking in PBS containing 2% BSA, cells were stained with the primary antibodies for 1 h in the same blocking buffer. After three washes with PBS, cells were incubated with the secondary antibodies (AF555-conjugated anti-mouse IgG, AF488-conjugated anti-mouse IgG and AF555-conjugated anti-rabbit IgG) and DAPI."}, "LCMV": {"system": "LCMV", "assay_type": "cell-based, Lymphocytic Choriomeningitis Virus", "conditions": "HaCaT, LCMV MOI 0.05 or 0.2"}, "[2]": {"system": "interferon-stimulated response element (ISRE)", "assay": "ISRE luciferase reporter assay in immortalized mouse keratinocytes", "assay_type": "cell-based", "conditions": "FGF7 10 ng/ml and/or IFNα 1000 U/ml, 12 h", "description": "FIG. 3C pertains to immortalized mouse keratinocytes that were co-transfected with TK-Renilla and pGL4.45[luc2P/ISRE/Hygro] plasmids, starved in serum-free medium and then treated with FGF7 (10 ng/ml) and/or IFNα (1000 U/ml) for 12 h. Firefly luciferase activity was determined in cell lysates and normalized to Renilla luciferase activity (transfection control). The mean value in vehicle-treated cells (CTRL) was set to 1.\nMouse keratinocytes and HEK 293 cells were transfected with the expression vector for TK-Renilla and the expression vector pGL4.45[luc2P/ISRE/Hygro] (Promega). The latter contains five copies of an ISRE that drives expression of the luciferase reporter gene. Cells were seeded into 12-well plates, cultured for 24 h, and transfected using Lipofectamine 2000 […]. They were then starved in serum-free medium, treated with FGF7 (10 ng/ml) and/or IFNα (1000 U/ml) for 12 h, lysed and analyzed using a dual-luciferase assay system (Promega) as described by the manufacturer. Relative light units were measured in a GloMax 96 microplate luminometer with dual injectors (Promega)."}, "[3]": {"system": "interferon-stimulated genes (ISGs)", "assay": "ISG expression in human keratinocytes (HaCaT, primary foreskin) treated with FGF7, FGF10 and/or IFNα (qRT-PCR)", "assay_type": "cell-based", "conditions": "HaCaT, 10 ng/ml, 6 h", "description": "FIG. 2F relates to serum-starved immortalized human keratinocytes (HaCaT cell line) that were treated for 6 h with FGF7, FGF10 (both 10 ng/ml) or vehicle (CTRL). RNA was analyzed by qRT-PCR for the expression of the indicated ISGs relative to RPLP0. Mean expression levels in CTRL cells were set to 1. Representative data from three experiments are shown. Scatter plot and mean values are shown in (A-D). Each dot represents a biological replicate.\nFIGS. 3E and F pertain to confluent human primary foreskin keratinocytes and (E) or HaCaT cells (F) that were serum-starved for 24 h and treated with FGF7 (10 ng/ml) and/or IFNα (500 U/ml) for 16 h. Cells were analyzed for ISG mRNA levels by qRT-PCR relative to RPLP0. Mean expression levels in vehicle-treated (CTRL) cells were set to 1.\nThe human HaCaT keratinocyte cell line was cultured in DMEM (Sigma) supplemented with 10% FCS (Thermo Fisher). […]\nTotal RNA from isolated epidermis of mice or from total skin was purified with Trizol, followed by additional purification with the RNeasy Mini Kit, including on-column DNase treatment (Qiagen, Hilden, Germany). […] Relative gene expression was determined using the Roche LightCycler 480 SYBR Green system (Roche, Rotkreuz, Switzerland)."}},
  "note": "Entries after “also recorded” stand apart in the source; their conditions may differ.",
  "data": [
    {"molecule": "FGF1: member of the FGF family that binds to all FGFRs", "values": [
      {"measurement": "HCV replication", "setting": "HCV", "result": "does not enhance HCV replication"}
    ]},
    {"molecule": "COc1cc(CCc2cc(NC(=O)c3ccc(N4C[C@@H](C)N[C@@H](C)C4)cc3)n[nH]2)cc(OC)c1", "note": "[AZD4547, N-[5-[2-(3,5-dimethoxyphenyl)ethyl]-1H-pyrazol-3-yl]-4-[(3R,5S)-3,5-dimethylpiperazin-1-yl]benzamide, reference compound]", "values": [
      {"measurement": "FGF7-mediated ISG downregulation (ISG mRNA relative to Rps29)", "setting": "[1]", "result": "The same effect was observed"},
      {"measurement": "amount and size of Glyc-D-positive fused cells (immunofluorescence)", "setting": "HSV-1", "result": "strongly reduced the amount of Glyc-D-positive fused cells"},
      {"measurement": "Glyc-B DNA levels (viral load, qPCR relative to human β-actin gene)", "setting": "HSV-1", "result": "inhibited the positive effect of FGF7 on viral replication"}
    ]},
    {"molecule": "CCN1CCN(c2ccc(Nc3cc(N(C)C(=O)Nc4c(Cl)c(OC)cc(OC)c4Cl)ncn3)cc2)CC1", "note": "[BGJ398, 3-(2,6-dichloro-3,5-dimethoxyphenyl)-1-[6-[4-(4-ethylpiperazin-1-yl)anilino]pyrimidin-4-yl]-1-methylurea, reference compound]", "values": [
      {"measurement": "Glyc-B DNA levels (viral load, qPCR relative to human β-actin gene)", "setting": "HSV-1", "result": "inhibited the positive effect of FGF7 on viral replication"}
    ]},
    {"molecule": "FGF2: fibroblast growth factor-2", "values": [
      {"measurement": "HCV replication", "setting": "HCV", "result": "promoted hepatitis C RNA replication and production of novel particles; also recorded: enhanced viral replication and new particle production, but not infection with the virus"}
    ]},
    {"molecule": "IFNα", "values": [
      {"measurement": "appearance of HSV-1 infected cells (transmission microscopy)", "setting": "HSV-1; 48 h after infection", "result": "almost indistinguishable from non-infected cells"},
      {"measurement": "viral glycoprotein B (Glyc-B) DNA", "setting": "HSV-1; HSV-1 MOI=0.5, FGF7 10 ng/ml or IFNα 1000 U/ml", "result": "had the opposite effect"},
      {"measurement": "expression levels of LCMV nucleoprotein (NP) / viral replication", "setting": "LCMV", "result": "blocked the viral replication"},
      {"measurement": "ISRE-driven luciferase activity", "setting": "[2]", "result": "significant increase in luciferase activity"}
    ]},
    {"molecule": "CCN(CC)CCCC(C)Nc1nc(C)cc(Nc2ccc3nc(C)cc(N)c3c2)n1", "note": "(racemic) [NSC23766, 6-N-[2-[5-(diethylamino)pentan-2-ylamino]-6-methylpyrimidin-4-yl]-2-methylquinoline-4,6-diamine, reference compound]", "values": [
      {"measurement": "FGF7-mediated ISG downregulation (ISG mRNA relative to Rps29)", "setting": "[1]", "result": "partially or even completely rescued the FGF7-mediated ISG downregulation"},
      {"measurement": "amount and size of Glyc-D-positive fused cells (immunofluorescence)", "setting": "HSV-1", "result": "strongly reduced the amount of Glyc-D-positive fused cells"},
      {"measurement": "Glyc-B DNA levels (viral load, qPCR relative to human β-actin gene)", "setting": "HSV-1", "result": "strongly reduced"}
    ]},
    {"molecule": "FGF10: recombinant human FGF10, activates FGFR2b and FGFR1b (protein, UniProt O15520 38-208, looked up) Fibroblast growth factor 10: QALGQDMVSPEATNSSSSSFSSPSSAGRHVRSYNHLQGDVRWRKLFSFTKYFLKIEKNGKVSGTKKENCPYSILEITSVEIGVVAVKAINSNYYLAMNKKGKLYGSKEFNNDCKLKERIEENGYNTYASFNWQHNGRQMYVALNGKGAPRRGQKTRRKNTSAHFLPMVVHS", "values": [
      {"measurement": "ISG expression (qRT-PCR relative to RPLP0)", "setting": "[3]", "result": "suppressed ISG expression to a similar extent as FGF7"}
    ]}
  ]
}
